Source: patent US12264163B2, “Compounds and methods for treating fibrotic pathologies” (Mayo Foundation for Medical Education and Research, priority 2019, dated 2025)

Legend:
[1] = test system: YAP; experiment: Western blotting of YAP serine 127 phosphorylation; assay type: cell-based, human; settings: IMR-90 cells, 10 μM, 2 hours
Description: IMR-90 cells cultured for 24 hours in media containing 0.1% FBS, treated 2 hours prior to fixation. N=3 (***p<0.001 vs. 0.1% DMSO vehicle control).
Western Blotting: Cells were plated in EMEM containing 10% FBS overnight. Media was exchanged with EMEM containing 0.1% FBS for 24 hours. Prior to protein isolation cells were treated with the indicated concentration of compounds for the indicated time. Total protein was isolated using RIPA buffer (pH 8.0) containing Pierce Phosphatase Inhibitor (Thermo) and Halt Protease Inhibitor Cocktail (Thermo). Lysate total protein concentration was determined using Pierce BCA Protein Assay Kit (Thermo) and samples were run on a 10% polyacrylamide gel. Blots were incubated overnight with primary antibodies: pYAP (Ser 127, Cell Signaling D9W21), YAP/TAZ (Cell Signaling D24E4), GAPDH (Cell Signaling 14C10), HSC70 (Santa Cruz sc-7298), αSMA (Abcam ab5694), and fibronectin (Santa Cruz sc-9068) diluted 1:1000 in Li-Cor Odyssey Blocking Buffer. Blots were washed with TBS-Tween before 60 minute incubation with IR-dye-conjugated secondary antibodies (Li-Cor) diluted 1:10,000. Plates were imaged via a Li-Cor OdysseyXL system with quantification performed via densitometry.

[2] = test system: NIH-3T3 cells; experiment: Matrix remodeling measured by atomic force microscopy; assay type: cell-based, mouse; settings: TGFβ + ascorbic acid 72 hours, then 10 μM DHX 72 hours
Description: NIH-3T3 cells plated onto gelatin-coated tissue culture plates stimulated to deposit matrix with 2 ng/mL TGFβ and 20 μM ascorbic acid for 72 hours prior to AFM microindentation analysis to measure stiffness (elastic modulus). The same dishes were then treated +/−10 μM DHX in the same media for another 72 hours and AFM analysis. The matrices were decellularized and passage 3 NHLFs were plated onto the matrices; after 24 hours RNA was collected and expression of profibrotic genes was analyzed. AFM analysis N=2. 75 indentation measurements were made for each plate. The box and whisker plots show min to max, quartile, and mean from one representative experiment (****p<0.0001 vs. 0.1% DMSO vehicle control) (++p<0.01, +p<0.05 vs. the same culture plate after the first 72 hour incubation). […]
Matrix Remodeling Measured by Atomic Force Microscopy: NIH-3T3 cells were plated to confluence onto gelatin coated (Cell Biologics) AFM compatible tissue culture dishes (Willco) in DMEM containing 10% FBS. […] Microindentations were performed using a 2.5 μm radius sphere-tipped probe (Novascan, IA, USA) with a spring constant determined at about 100 pN/nm by thermal fluctuation method. For each dish, 3 different areas were analyzed. […] The Young's modulus E was determined by the fitting of force curve by Hertz model using NanoScope Analysis software (Bruker) and considering Poisson's ratio of 0.5. […]

[3] = test system: CTGF, COL1A1, ACTA2, FN1; experiment: Profibrotic / matrix remodeling gene expression by qPCR in fibroblasts; assay type: cell-based, human
Description: Genes which encode Connective tissue growth factor (CTGF), Collagen I (COL1A1), αSMA (ACTA2), and Fibronectin (FN1) are reduced by 24 hour treatment with DHX (10 μM), +/−SCH 39166 (3 μM). N=3 (****p<0.0001, ***p<0.001, *p<0.05 vs. 0.1% DMSO vehicle control)
IPF patient-derived fibroblasts cultured in media containing 0.1% FBS were stimulated for 24 hours with 2 ng/mL TGFβ and 10 μM DHX prior to RNA isolation. Genes which encode for ECM crosslinking: transglutaminase 2 (TGM2), lysyl oxidase and lysyl oxidase-like enzymes (LOX and LOXL1-4), ECM degradation: uPA (PLAU), tPa (PLAT), cathepsin K (CTSK), and matrix metalloprotease-14 (MMP14) and ECM protease inhibitors: metalloprotease inhibitor 3 (TIMP3), and plasminogen activator inhibitor 1 (SERPINE1) were measured. N=3. (****p<0.0001, ***p<0.001, **p<0.01, *p<0.05 vs. 0.1% DMSO vehicle control non-TGFβ treated), (++++p<0.0001, ++p<0.01, +p<0.05 vs. 0.10% DMSO vehicle control TGFβ treated).
For all other in vitro experiments, cells were treated as indicated prior to RNA isolation using RNeasy Plus Mini Kit (Qiagen) according to manufacturer's instructions. Isolated RNA (250 ng) was then used to synthesize cDNA using SuperScript VILO (Invitrogen). Quantitative PCR was performed using FastStart Essential DNA Green Master (Roche) and analyzed using a LightCycler 96 (Roche). Data are expressed as a fold change by ΔΔCt relative to GAPDH. For in vivo experiments, tissue was immediately frozen, and stored at −80° C. RNA isolation, cDNA synthesis, and qPCR analysis were performed as above.

In the case of `Oc1cc2c(cc1O)[C@H]1c3ccccc3CN[C@@H]1CC2` (racemic) [Dihydrexidine], the “YAP serine 127 phosphorylation” value [1] is reported as “promoted YAP serine 127 phosphorylation”, the “stiffness of cells and cell-derived matrix (AFM)” value [2] is reported as “significantly reduced the observed stiffness” and the “expression of matrix crosslinking, protease inhibitor and matrix degradation genes” value ([3]; IPF patient derived fibroblasts, 2 ng/mL TGFβ + 10 μM DHX, 24 hours) is reported as “reversed the effects of TGFβ”. The “expression of profibrotic genes CTGF, COL1A1, ACTA2, FN1” value ([3]; IPF patient-derived lung fibroblasts, 10 μM, 24 hour) was “reduced”, the “profibrotic gene expression and extracellular matrix accumulation with constitutively active TAZ” value ([3]; NIH-3T3 cells expressing doxycycline-inducible TAZ4SA) was “no effect on profibrotic gene expression or extracellular matrix accumulation” and the “profibrotic gene expression in human dermal fibroblasts” value ([3]; human dermal fibroblasts, 24 hours +/− 2 ng/mL TGFβ) was “blocks profibrotic gene expression”.
